We go through three compounds from patent publication US4386093A (The United States of America as represented by the …, priority 1981, dated 1983).

Read-outs that look alike come from different tables or passages of the source.

Data set [1] concerns the target S-adenosylhomocysteine hydrolase.
Data set [2] in a line: Cell number in HL-23 foci formation assay. The data set is classed as cell-based. The conditions noted are these: rat, nrk 153 cl 7 cells, read-out: % Control Cell Number.
Data set [3] in a line: Cell number in HL-23 virus production assay. The conditions noted are these: rat, nrkb/hl23 cells, read-out: % Control Cell Number. It is filed as cell-based.
Another data set has as its system poliovirus. It is filed as cell-based.
The next data set deals with vaccinia virus. In words: microbe, parasite or virus in culture. The data set is classed as cell-based.
A further data set has as its system herpes simplex type I. In words: Herpes I plaque formation in mouse L cells. The conditions noted are these: 72 h, day 3. It is filed as cell-based.
In data set [4] the test system is HL-23 C type virus. In words: HL-23 foci formation (oncogenic transformation) in normal rat kidney cells. The conditions noted are these: NRK 153 Cl 7 cells, day 5. It is filed as cell-based.
Another data set is described as follows: in vitro. Particulars: vaccinia assay host cells.
For data set [5], the system named is HL-23 C type virus. The data set can be described thus: HL-23 virus production in NRKB/HL23 cells. It is filed as cell-based. Particulars: HL2/3, 72 h. How it is done: on day 3; virus production by HL23 was measured with NRKB/HL23 cells on
day 3; oncogenic transformation by HL23 was assayed by infecting normal

The test system of data set [6] is calf intestinal deaminase. In words: Deamination by calf intestinal deaminase. It is filed as biochemical.
The test system of another data set is adenosine kinase. The data set can be described thus: Phosphorylation by adenosine kinase. It is filed as biochemical.
The nature of data set [7]: Cell number in herpes I plaque assay. It is filed as cell-based. The conditions noted are these: mouse L cells.
For data set [8] the following is noted: 1 μM; vaccinia assay.
Data set [9] deals with neutrophilis or macrophage cell lines.
The mark [10] stands for this setting: read-out: Ki, S-adenosylhomocysteine hydrolase.
[11] abbreviates: listed as (±)3-Deazaaristeromycin.

As to `Nc1ncnc2c1ncn2[C@@H]1C[C@H](CO)[C@@H](O)[C@H]1O` (relative stereo) [(±)aristeromycin, reference compound], in data set [1] (setting [10]), the Ki (commonly the dissociation constant of the complex between target and ligand, obtained from inhibition or displacement) came to 1 nM.

On to `Nc1nccc2c1ncn2[C@@H]1C[C@H](CO)[C@@H](O)[C@H]1O` (relative stereo) [(±)3-deazaaristeromycin, (±)-4-amino-1-[(1α, 2β, 3β, 4α)-2,3-dihydroxy-4-(hydroxymethyl)-cyclopentyl]imidazo[4,5-c]pyridine], for which the activity at 120 h, 0.25 µM in [2] (0.25 uM) turned out to be 100%. In data set [2] (0.50 uM), the activity at 120 h, 0.5 µM is 96%. The activity at 120 h, 1 µM in data set [2] (1.00 uM) worked out at 81%. The activity at 120 h, 2 µM in [2] (2.00 uM) was 71%. Besides, the activity at 120 h, 4 µM in [2] (4.00 uM) came out at 53%. In addition, in data set [3] (0.25 uM), the activity at 72 h, 0.25 µM is 100%. The activity at 72 h, 0.5 µM in data set [3] (0.50 uM) was 88%. Moreover, the activity at 72 h, 1 µM in [3] (1.00 uM) was 75%. Further, in the data set on poliovirus, the “Inhibition of replication of poliovirus” value is recorded as “fail to inhibit”. Moreover, the “% Inhibition, Vaccinia plaque formation” value in the data set on vaccinia virus (1.0 uM) amounted to 99.2%. Also, the inhibition (commonly how much of the control response was suppressed) at 0.5 µM in the data set on vaccinia virus (Orthopoxvirus vaccinia, read-out: % Inhibition, Vaccinia plaque formation, 0.5 uM) is 84%; in the data set on HL-23 C type virus [4] (HL2/3, 120 h, 0.50 uM), 44%; in the data set with HL-23 C type virus [5] (read-out: % Inhibition, HL-23 virus production, 0.50 uM, day 3) it was above 85%. For the same compound, the inhibition at 1 µM is above 99% in the data set on vaccinia virus (Orthopoxvirus vaccinia, read-out: % Inhibition, Vaccinia plaque formation, 1.0 uM); 76% in the data set with HL-23 C type virus [4] (HL2/3, 120 h, 1.00 uM); 86% with HL-23 C type virus [5] (1.00 uM, day 3). Besides, the inhibition at 2 µM was 99.6% with vaccinia virus (Orthopoxvirus vaccinia, read-out: % Inhibition, Vaccinia plaque formation, 2.0 uM) and around 96% in the data set with HL-23 C type virus [4] (HL2/3, 120 h, 2.00 uM). Besides, the inhibition at 4 µM was 99.8% in the data set on vaccinia virus (Orthopoxvirus vaccinia, read-out: % Inhibition, Vaccinia plaque formation, 4.0 uM) and 99% in the data set on HL-23 C type virus [4] (HL2/3, 120 h, 4.00 uM). This compound also gave an inhibition at 10 µM in the data set with herpes simplex type I (10 uM) of 60%. The compound also gave an inhibition at 20 µM in the data set with herpes simplex type I (20 uM) of 97%. For the same compound, the inhibition at 30 µM in the data set with herpes simplex type I (30 uM) was above 99%. Further, in the data set with herpes simplex type I (40 uM), the inhibition at 40 µM was 99.3%. In the data set on herpes simplex type I (50 uM), this compound showed an inhibition at 50 µM of 99.3%. Besides, in the data set on herpes simplex type I (60 uM), the inhibition at 60 µM turned out to be 100%. The compound further returned an inhibition at 70 µM in the data set with herpes simplex type I (70 uM) of 100%. The “Irreversible inhibition of the enzyme” value in data set [1] is “negligible or very little irreversible inhibition”. Also, the inhibition constant Ki in data set [1] (read-out: Ki, AdoHcy hydrolase) was 3000 nM; in data set [1] (setting [10]) it was 3000 nM. For the same compound, the “% Inhibition, HL-23 foci formation” value in the data set on HL-23 C type virus [4] (2.00 uM, 2 µM) was 92%. Besides, the inhibition at 0.25 µM in the data set on HL-23 C type virus [4] (HL2/3, 120 h, 0.25 uM) came to 44%; in the data set with HL-23 C type virus [5] (0.25 uM, day 3), 68%. Further, in “in vitro”, the activity at 0.5 µM was found to be 120%. In addition, the activity at 1 µM in “in vitro” was found to be 144%. In “in vitro”, the activity at 2 µM was found to be 111%. For the same compound, the activity at 4 µM in “in vitro” was 111%. Besides, the Deamination entry in data set [6] (listed as 3-Deaza-Ari) was “not deaminated”; in data set [6] (setting [11]) it was “not subject to deamination or phosphorylation”. For the same compound, the figures for the Phosphorylation entry with adenosine kinase (listed as 3-Deaza-Ari) and in the data set on adenosine kinase (setting [11]) were “not phosphorylated” and “not subject to deamination or phosphorylation”, respectively. The activity at 72 h, 10 µM in data set [7] (10 uM, read-out: % Control Cell Number) was found to be 100%. For the same compound, in [7] (20 uM, read-out: % Control Cell Number), the activity at 72 h, 20 µM is 95%. For the same compound, the activity at 72 h, 30 µM in [7] (30 uM, read-out: % Control Cell Number) amounted to 95%. The activity at 72 h, 40 µM in [7] (40 uM, read-out: % Control Cell Number) stood at 91%. For the same compound, in data set [7] (50 uM, read-out: % Control Cell Number), the activity at 72 h, 50 µM was determined as 95%. Further, the activity at 72 h, 60 µM in [7] (60 uM, read-out: % Control Cell Number) turned out to be 91%. In addition, in data set [7] (70 uM, read-out: % Control Cell Number), the activity at 72 h, 70 µM is 82%. The cytotoxicity in data set [7] (20-30 μM, read-out: Reduction in the cell number (cytotoxicity)) is at most 5%; in [8], “without any cytotoxicity”. Besides, in [9], the Inhibition of chemotaxis entry is reported as “does not inhibit”.

With `Nc1nccc2c1ncn2[C@@H]1O[C@H](CO)[C@@H](O)[C@H]1O` [3-deazaadenosine, reference compound], in the data set on poliovirus, the “Inhibition of replication of poliovirus” value is recorded as “fail to inhibit”.
